Measurements from US8110655B2, “Method to promote hair growth and/or delay or treat hair loss by administering a TGF-β antagonist or inhibitor” (Auxagen, Inc., priority 2006, dated 2012).
Where no end group is shown, it is not given here. PEG = not defined here

Experiments:
[1] = system: mink lung epithelial cells; assay: Block of TGF-β-induced growth inhibition / DNA synthesis response; assay type: cell-based
From the text: (§1) By “treating or preventing alopecia” is meant the ability to cure, reduce or prevent one or more clinical symptoms of alopecia, including, but not limited to, hair loss, cornification, scaling, uneven thickness, persistent itch, inflammation, and rapid epithelial cell turnover in the skin. Treating alopecia also includes the promotion of hair growth at the site of the hair loss. The methods of the invention also encompass promotion or stimulation of hair growth in general (e.g. to thicken naturally thin hair). […] It was also discovered that at least four consecutive amino acids comprising W(or R)XXD (wherein X is any amino acid) motif in the sequences, determines their potencies and that they block TGF-β-induced growth inhibition and TGF-β-induced expression of PAI-1 in mink lung epithelial cells and other cell types (U.S. Pat. No. 6,500,920 issued Dec. 31, 2002). As was previously disclosed by the inventors, such peptides are effective in inhibiting, ameliorating or reversing the effects of TGF-β in biological systems including but not limited to reducing scarring wounds, to prevent lung injury in adult respiratory distress syndrome (ARDS), and injuries of other tissues caused by pharmacological agents (e.g. bladder injury caused by cyclophosphamide). […]

[2] = system: PAI-1; assay: Block of TGF-β-induced expression / transcriptional activation of PAI-1; assay type: cell-based, mink
From the text: as §1

[3] = system: partial-thickness pig skin burn wounds; assay: Partial-thickness porcine burn wound outcomes; assay type: in vivo
Description: Animals were sedated with Talazine® ([…] Zolazepam, Fort Dodge Lab, Fort Dodge, Iowa) 5 mg/kg IM. The pigs were then intubated endotracheally and maintained under a surgical plane of anesthesia with isoflurane 0.5-2.5% in room air. The flank and back hair was clipped with hair clippers and the skin was scrubbed with a povidine iodine solution. Standardized partial thickness burns were created on the animals' backs and flanks by applying a 2.5 cm by 2.5 cm, 150 gram aluminum bar preheated in hot water to 80° C. The heated bar was wiped dry just prior to application to prevent water droplets from creating a steam burn on the skin. The bar was then placed at a vertical position perpendicular to the skin's surface and applied for a period of 20 seconds with all pressure supplied by gravity. […] In order to simulate burn blister debridement and enhance the absorption of the topical agents, the necrotic epidermis was gently removed by rubbing the burn with dry gauze. Removal of the necrotic epidermis results in delayed reepithelialization, and increased scar formation^17. Twenty burns were inflicted on each of 2 pigs (evenly distributed between both side of the pigs), for a total of 40 burns. The agent used in the studies is PEG-β1^25 (SEQ ID NO: 8) This particular peptide was chosen after screening seven pentacosapeptides whose amino acids overlap and cover most of the human TGF-β1 molecule, the monomer of which has 112 amino acid residues. […] Furthermore, the chosen peptide was also shown to block the cellular responses to TGF-β1 such as DNA synthesis and transcriptional activation of PAI-1. […] TGF-β peptantagonist PEG-β1^25 in PBS was mixed with Sterile IntraSite gel from Smith and Nephew Medical, Ltd. (UK) at a ratio of 1:3 (v/v). The pigs were randomized to treatment with topical PEG-β1^25 peptantagonist (SEQ ID NO: 8) or its vehicle (carboxy methylcellulose, IntraSite Gel, Smith and Nephew, Largo, Fla.) immediately after injury and at days 3, 5, 7, 10, 14, 18, 21, and 25. A thin layer of the topical treatment was applied with a sterile metal spatula. Group randomization order was determined by drawing unlabeled forms from an opaque container. After applying the topical therapy, the burns were covered with dry non-adherent gauze ([…] Company, Mansfield, Mass.). The burned areas were then covered with a gauze bandage roll (Conform®), Kendall Healthcare Products Company, Mansfield, Mass.) and an adhesive elastic bandage (Elastoplast®, Beiersdorf-Jobst, Inc., Rutherford College, N.C.). The adhesive dressing was secured to the skin at a distance from the burns with skin staples. Animals were observed frequently for signs of pain or discomfort and treated with IM buprenorphine 0.01 mg/kg as needed. Dressing changes were performed with each application of the topical agents. At each dressing change all gauze dressings were removed and the wounds were observed and the study agent was reapplied. All burns were then re-covered with non-adherent gauze and elastic wrap as previously described. Full thickness 4-mm punch biopsies (Miltex Instrument Company Inc., Lake Success, N.Y.) were taken after 7, 10, and 14 days for blinded histopathological evaluation by a board-certified dermatopathologist masked to treatment assignment. The entire wound was excised at 28 days and submitted for histological evaluation. Digital photos were taken prior to biopsy to determine the presence of wound contraction defined as an hourglass like shape. Histopathological studies were done on formalin-fixed, alcohol-dehydrated, xylene-cleared, paraffin-embedded, hematoxylin and eosin stained 5 μm sections using conventional microscopy. The primary outcome was the percent of wounds healing with wound contraction. Secondary outcomes were percent reepithelialization, percent wound infection, and the percent of wounds with scars extending through the entire thickness of the dermis. […]

[4] = system: TGF-β receptors in mink lung epithelial cells; assay: Inhibition of labeled TGF-β binding to TGF-β receptors in mink lung epithelial cells; conditions: screen of seven pentacosapeptides
From the text: as §1

[5] = day 28, of 20 burns, full thickness scars

Substance: PEG-β1^25: β1^25 (SEQ ID NO: 8) pegylated at the N-terminal alpha-amino group and at the epsilon-amino group ({PEG}-ANFSLGPSPYIWSLDTQYSK(PEG)VLALY; reading uncertain; listed as Homo Sapiens)
- block of cellular response to TGF-β1: DNA synthesis [1]: block
- block of cellular response to TGF-β1: transcriptional activation of PAI-1 [2]: block
- Percent wound reepithelialization, day 7 ([3]; day 7, 20 burns): 14.2 (28.8) %
- Percent wound reepithelialization, day 10 ([3]; day 10, 20 burns): 46.3 (44.4) %
- Percent wound reepithelialization, day 14 ([3]; day 14, 20 burns): 91.9 (25.7) %
- % wounds completed reepithelialized, day 14 ([3]; day 14, of 20 burns): 90%
- No. wounds completed reepithelialized, day 14 ([3]; day 14, of 20 burns): 18
- % contracted wounds, day 28 ([3]; day 28, of 20 burns): 35%
- No. contracted wounds, day 28 ([3]; day 28, of 20 burns): 7
- % deep scars, day 28 [3, 5]: 10%
- No. deep scars, day 28 [3, 5]: 2
- hair growth in treated wounds ([3]; partial-thickness burn, topical gel): exhibited hair growth
- Mean Difference (95% CI) in percent wound reepithelialization, day 7 ([3]; versus control vehicle, day 7): 7.9 (−8.2-24.1)
- Mean Difference (95% CI) in percent wound reepithelialization, day 10 ([3]; versus control vehicle, day 10): 20.9 (−6.1-48.0)
- Mean Difference (95% CI) in percent wound reepithelialization, day 14 ([3]; versus control vehicle, day 14): 19.5 (−2.5-41.5)
- inhibition of binding of labeled TGF-β1 to its receptor [4]: completely inhibited
